# Values of other authors as cited in patent publication US20080009496A1, “MUTAGENIC HETEROCYCLES” (Koronis Pharmaceuticals, Inc., priority 2003, published 2008).
# What was measured:
# [1] = deamination product of 5-aza-dC
# HIV = conditions: in vitro
smiles,measurement,setting,value
"O=c1ncn([C@H]2C[C@H](O)[C@@H](CO)O2)c(=O)[nH]1 [5-aza-dU, 5-aza-2′-deoxyuridine]",antineoplastic activity,[1],loss of antineoplastic activity
"Nc1ncn([C@H]2C[C@H](O)[C@@H](CO)O2)c(=O)n1 [5-aza-dC, 5-aza-2′-deoxycytidine]",inhibition of HIV replication,HIV,inhibit HIV replication in vitro
